Measured values reported in the METLIN SMRT retention time set (Domingo-Almenara et al. 2019).

Assay: gradient 5% acetonitrile 3 min, to 50% in 2 min, to 85% in 15 min, held 3 min, 100 µL/min
Details: column: Zorbax Extend-C18 2.1 x 50 mm; eluents: water / acetonitrile, 0.1% formic acid
Outline: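 A Zorbax Extend-C18 column (2.1 × 50 mm, 1.8 μm) run at 100 μL/min with water and acetonitrile, both containing 0.1% formic acid, separated mixtures of ~100 pure standards. The HPLC was coupled to a quadrupole time-of-flight mass spectrometer operated in positive and negative ionization mode, with dead and dwell volumes of 40 μL and 900 μL. Each retention time was taken from a computationally picked adduct peak that was then manually inspected.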

| Structure (SMILES) | RP-LC retention time |
| --- | --- |
| CCN(C(=O)c1ccc(C)cc1)c1nc(-c2ccc(C)cc2)cs1 | 1320 s |
| O=C(Cn1cnc2nc3c(cc2c1=O)CCCC3)NCc1cccc(Br)c1 | 756 s |
| CCOC(=O)C1CCN(c2nc(-c3ccc(OC)cc3)no2)CC1 | 981 s |
| CC(C)CCNC(=O)C1(C)Cn2nc(C(=O)NCc3ccc(N(C)C)cc3)cc2C(=O)N1C (stereo not drawn) | 619 s |
| O=C(O)CSc1nc2ccccc2s1 | 795 s |
| CCCNc1cc(N2CCC(CCC(=O)NCc3ccc(F)cc3F)CC2)ncn1 | 694 s |
| O=C(CSc1cc(-c2nc(-c3ccccc3)no2)ccn1)N1CCCC1 | 941 s |
| COc1cc(NS(=O)(=O)c2cc(-c3cnn4c(C)cc(C)nc34)ccc2OC)cc(OC)c1 | 949 s |
| Cc1ccc(CN(C(=O)COc2ccc(Cl)c(C)c2)C2CCS(=O)(=O)C2)o1 (stereo not drawn) | 979 s |
| CCc1ccc(-n2nnc(C(=O)N3CCC4(CC3)OCCO4)c2-c2ccncc2)cc1 | 766 s |
| Cc1ccc(NC(=O)N2CCN(C(=O)N3C[C@H]4C[C@H](C3)[C@H]3CCCC(=O)N3C4)CC2)cc1C | 698 s |
| O=C(NCC(=O)N1CCCc2ccccc21)c1ccoc1 | 708 s |
| CN(CCCNC(=O)C1CCN(c2nnc3ccc(Cl)cn23)CC1)c1ccccc1 | 606 s |
| CCOC(=O)N1CCN(C(=O)c2cc(S(=O)(=O)N3CCOCC3)ccc2OC)CC1 | 636 s |
| Cc1ccc(C(=O)N2CCC(n3cnnc3-c3ccccc3)C2)cn1 (stereo not drawn) | 573 s |
| Cc1ccc(Cn2c(=O)c3nn(C)cc3n3c(=O)n(Cc4ccc(N5CCCC5=O)cc4)nc23)cc1 | 812 s |
| COc1ccc2c(CCNC(=O)c3cccs3)c[nH]c2c1 | 764 s |
| O=C(c1cc(F)ccc1F)N1CCC2(CC1)N=C(c1ccc(Cl)cc1)NO2 | 902 s |
| O=C(C1CC1)N1CCc2sc(S(=O)(=O)NCc3ccccc3F)cc2C1 | 815 s |
| Cc1nc(-c2ccc(NC(=O)N3CCN(c4ccc(F)cc4)CC3)cc2)no1 | 859 s |
| COc1cc(OC)c(NS(=O)(=O)c2cc(-c3c(C)noc3NC(C)=O)ccc2OC)cc1Cl | 792 s |
| COc1ccc(C(=O)Nc2ccc3c(c2)Sc2ncccc2C(=O)N3C(C)C)c(OC)c1 | 951 s |
| COCCC1CCN(C(=O)c2nn(C)c3ccccc23)CC1 | 771 s |
| CCCCOc1ccc(C(=O)N2CCN(c3cc(C)nc(N4CCCCC4)n3)CC2)cc1 | 816 s |

| Structure (SMILES) | RP-LC retention time |
| --- | --- |
| Cc1ccc(NC(=O)C2CCN(S(=O)(=O)c3cn(C(C)C)cn3)CC2)cc1F | 823 s |
| CCOC(=O)c1[nH]c(C)c(C(=O)N2CCC(CC(=O)NC3CCCCC3)CC2)c1C | 719 s |
| COc1ccc(N2CCN(c3cc(SCC(=O)Nc4ccc(Cl)cc4F)ncn3)CC2)cc1 | 1090 s |
| CCCc1nc(NCc2cc(OC)ccc2OC)ncc1C(=O)O | 863 s |
| COC1CN(C2CCN(C(=O)c3cccs3)CC2)C12CCOCC2 (stereo not drawn) | 572 s |
| COc1ccc(S(=O)(=O)Nc2ccc3c(c2)N(C(C)=O)CC3)c(C)c1 | 722 s |
| COc1ccc(-c2csc(SCc3ccc(C(=O)N4CCOCC4)o3)n2)cc1OC | 783 s |
| CCN(CC)CCNC(=O)C1(O)c2cc(Br)ccc2NC(=O)N1c1cccc(OC)c1 (stereo not drawn) | 590 s |
| CCc1nc(N)n(CC(=O)NCc2ccc(F)cc2)c(=O)c1C | 634 s |
| Cc1ccc(Cc2nc(CCNC(=O)C3CCN(S(=O)(=O)c4ccc(C)cc4)CC3)n[nH]2)cc1 | 769 s |
| CCc1ccc(C2=C(C)C(N3CCCN(C(=O)NC(C)C)CC3)=NS2(=O)=O)cc1 | 849 s |
| CCN(CC)S(=O)(=O)N1CCC(C(=O)NCCc2ccc(OC)c(OC)c2)CC1 | 751 s |
| COc1ccc(N2CC(c3nnc(NC(=O)COc4ccc(C)cc4)o3)CC2=O)cc1 (stereo not drawn) | 742 s |
| COc1ccccc1-c1cc2c(=O)n(Cc3nc(-c4cccc(F)c4)no3)ccn2n1 | 1040 s |
| Cc1ccc(NC(=O)C(C)C2CCN(C(=O)Nc3ccc(F)cc3)CC2)cc1Cl (stereo not drawn) | 974 s |
| Cn1nc(-c2nnc(-c3ccccc3)o2)c2c1CCN(S(=O)(=O)c1ccc(C(C)(C)C)cc1)C2 | 1150 s |
| CCC(CC)C(=O)N1CCC(N2CCN(CC)C2=O)CC1 | 686 s |
| CCC(C)N(C)C(=O)c1cc2ccccc2c(-c2ccccc2Cl)n1 (stereo not drawn) | 1110 s |
| CC1CCN(c2nc(=O)n(CC(=O)Nc3ccc4c(c3)OCCO4)c3ccccc23)CC1 | 812 s |
| O=C(NCCc1ccccc1)c1nc(Cn2c(=O)oc3ccc(Cl)cc32)no1 | 966 s |
| COc1ccccc1NC(=O)C1CCCN(c2nc3ccccc3nc2OC)C1 (stereo not drawn) | 1160 s |
| O=C(NCC1CCCO1)c1ccc2nc(CCc3ccccc3)oc2c1 (stereo not drawn) | 840 s |
| O=C([C@@H]1C[C@H](F)CN1C(=O)C1(c2ccccc2)CC1)N1CCOCC1 | 639 s |
| O=c1cc(Cn2nc3c(-c4nc(-c5ccccc5)no4)cccn3c2=O)nc2ccccn12 | 740 s |

Results, then the compound that gave them:

| RP-LC retention time | Structure (SMILES) |
| --- | --- |
| 960 s | Cc1c(C(=O)N2CCSCC2)cnn1-c1ccc(-c2nc(C3CC3)no2)cn1 |
| 736 s | Cc1cc(F)ccc1NC(=O)C1CCN(C(=O)c2ncn3c2COC(c2ccc(F)cc2)C3)CC1 (stereo not drawn) |
| 674 s | COc1ccccc1-c1nc(-c2ccc3ncn(C)c3c2)no1 |
| 1180 s | CCCOc1nc2ccccc2nc1N1CCCC(C(=O)NCc2ccccc2)C1 (stereo not drawn) |
| 842 s | Cn1cccc1C(=O)C(=O)Nc1ccc2c(c1)OCCO2 |
| 585 s | CCCCS(=O)(=O)N1CCN(c2ccc(Nc3cc(C)ccn3)nn2)CC1 |
| 1030 s | CC(C)c1ccc(S(=O)(=O)N2CCC(C(=O)NCc3csc(-c4cccs4)n3)CC2)cc1 |
| 584 s | NC(=O)C1CCN(C(=O)NC2CCCCC2)CC1 |
| 830 s | CC(=O)N1CCc2cc(CNS(=O)(=O)c3ccc(Br)cc3)ccc21 |
| 882 s | O=C(c1nc2ccccc2s1)N1CCN(Cc2nc(-c3ccc(F)cc3)cs2)CC1 |
| 870 s | COc1ccc(CN2C(=O)[C@H](OC)[C@@H]2C2=CCN(C(=O)C3(c4ccccc4)CC3)CC2)cc1 |
| 688 s | Cc1ccc(CS(=O)(=O)N2CCC(CN3CCCC(C)C3)CC2)cc1 (stereo not drawn) |
| 869 s | CCn1ccc(NC(=O)Nc2cc(C)ccc2C)n1 |
| 1040 s | Cc1cc(-c2nnc(-c3ccc(F)cc3)o2)c(C)n1CC(=O)Nc1ccc(F)c(F)c1 |
| 1240 s | CCOc1nc2ccccc2nc1N1CCCC(C(=O)Nc2ccc(OC)c(Cl)c2)C1 (stereo not drawn) |
| 1140 s | COc1cccc(-c2cc3c(=O)n(Cc4nc(-c5ccc(Br)cc5)no4)ccn3n2)c1 |
| 693 s | COc1ccc(OCc2noc(CNS(=O)(=O)CCN3C(=O)CCCC3=O)n2)cc1 |
| 804 s | COC(=O)C(C)NC(=O)NCc1cccn1Cc1ccccc1F (stereo not drawn) |
| 804 s | CCc1ccccc1N1C(=O)CN(S(C)(=O)=O)CC1(C)C(=O)NCc1ccccc1 (stereo not drawn) |
| 917 s | COC(=O)C1=C(C)N(C(C)C)C(=O)C1(NC(=O)c1cccc(OC)c1)C(F)(F)F (stereo not drawn) |

| RP-LC retention time | Structure (SMILES) |
| --- | --- |
| 742 s | CC(=O)N1CCc2cc(C)c(S(=O)(=O)NCc3ccco3)cc21 |
| 665 s | COc1ccc(NC(=O)Cn2ccc3c(=O)n(C)c(=O)n(C)c32)c(OC)c1 |
| 696 s | N#Cc1ccccc1OCC(O)CNCCNC(=O)Nc1ccccc1 (stereo not drawn) |
| 730 s | CCc1ccc(C(=O)NC2CCN(c3cc(-c4cccs4)[nH]n3)C2)cc1 (stereo not drawn) |
| 758 s | CCCN1C(=O)Cc2ccccc2C1C(=O)NCc1cccs1 (stereo not drawn) |
| 718 s | O=C(NCc1ccco1)C1CCN(c2nnc(-c3ccccc3)o2)CC1 |
| 1250 s | CC1CCN(c2nc3c(c(=O)n(C)c(=O)n3C)n2Cc2ccc(Br)cc2)CC1 |
| 1020 s | C[C@H]1CN(C(=O)c2c(F)cccc2F)C[C@@H]1c1nc(-c2ccccc2)no1 |
| 887 s | O=C(c1ccc(F)cc1Cl)N1CCN(C(=O)c2nnn3c2COC(c2ccccc2)C3)CC1 (stereo not drawn) |
| 715 s | CCOc1cc(C(=O)NCC(=O)Nc2nc3ccccc3[nH]2)cc(OCC)c1OCC |
| 632 s | CCC(C)NC(=O)CC1Sc2ncccc2N(C)C1=O (stereo not drawn) |
| 1130 s | COc1ccc(-c2nc(CN(c3ccccc3)S(=O)(=O)c3cccs3)c(C)o2)cc1 |
| 790 s | COC(=O)C1=CN(c2ccc(F)cc2)c2ccccc2S1(=O)=O |
| 718 s | Cc1cc(N2CCOCC2)nc(N2CCN(S(=O)(=O)c3ccc(Br)cc3)CC2)n1 |
| 743 s | COc1ccc(-c2nc3ncccn3c2Nc2cccc(C)c2)cc1 |
| 966 s | O=C(Nc1ccc(F)c(F)c1)c1cccn1Cc1noc(C2CC2)n1 |
| 887 s | Cc1nc(NCc2ccco2)sc1C(=O)Nc1cccc(C(F)(F)F)c1 |
| 733 s | CC1CCN(CCCNS(=O)(=O)c2ccccc2-c2nc(-c3ccccc3)no2)CC1 |
| 888 s | CC1=C(c2ccc(C)cc2)S(=O)(=O)N=C1N1CCCN(C(=O)CCC(C)C)CC1 |
| 650 s | Cc1ccc(C(N)=Nc2ccccc2)cc1 |
